Key:
Experiment in all cases: relative viability (nuclei count vs DMSO), 5 days (fraction); higher = more cells survive
Tipifarnib + Trametinib = compound: Cn1cncc1[C@@](N)(c1ccc(Cl)cc1)c1ccc2c(c1)c(-c1cccc(Cl)c1)cc(=O)n2C [Tipifarnib] + CC(=O)Nc1cccc(-n2c(=O)n(C3CC3)c(=O)c3c(Nc4ccc(I)cc4F)n(C)c(=O)c(C)c32)c1 [Trametinib] (partner 0.02 µM)
Procedure, shortened: (§1)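 The day after seeding in 1536-well plates, lung cancer cell lines were treated by pin tool with a single drug, or with a fixed anchor-drug dose together with five library-drug doses (not always all listed) in √10 steps. After 5 days, a combined fix-and-stain solution (final 0.05% Triton X-100, 1% formaldehyde, 1 ug/ml Hoechst) was added. Nuclei counted on 4× images gave relative viability as treated counts over vehicle counts, reported as the median of duplicate plates.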

Tipifarnib + Lapatinib = compound: Cn1cncc1[C@@](N)(c1ccc(Cl)cc1)c1ccc2c(c1)c(-c1cccc(Cl)c1)cc(=O)n2C [Tipifarnib] + CS(=O)(=O)CCNCc1ccc(-c2ccc3ncnc(Nc4ccc(OCc5cccc(F)c5)c(Cl)c4)c3c2)o1 [Lapatinib] (partner 2 µM)
Procedure, shortened: as §1

Tipifarnib + Phenformin = compound: Cn1cncc1[C@@](N)(c1ccc(Cl)cc1)c1ccc2c(c1)c(-c1cccc(Cl)c1)cc(=O)n2C [Tipifarnib] + N=C(N)NC(=N)NCCc1ccccc1 [Phenformin] (partner 250 µM)
Procedure, shortened: as §1

Tipifarnib + Olaparib = compound: Cn1cncc1[C@@](N)(c1ccc(Cl)cc1)c1ccc2c(c1)c(-c1cccc(Cl)c1)cc(=O)n2C [Tipifarnib] + O=C(c1cc(Cc2n[nH]c(=O)c3ccccc23)ccc1F)N1CCN(C(=O)C2CC2)CC1 [Olaparib] (partner 8 µM)
Procedure, shortened: as §1

| Cell Line | relative viability (Tipifarnib + Trametinib; first compound 0.01 µM) | relative viability (Tipifarnib + Trametinib; first compound 0.03162 µM) | relative viability (Tipifarnib + Trametinib; first compound 0.1 µM) | relative viability (Tipifarnib + Trametinib; first compound 0.3162 µM) | relative viability (Tipifarnib + Trametinib; first compound 1 µM) | relative viability (Tipifarnib + Lapatinib; first compound 0.01 µM) | relative viability (Tipifarnib + Lapatinib; first compound 0.03162 µM) | relative viability (Tipifarnib + Lapatinib; first compound 0.1 µM) | relative viability (Tipifarnib + Lapatinib; first compound 0.3162 µM) | relative viability (Tipifarnib + Lapatinib; first compound 1 µM) | relative viability (Tipifarnib + Phenformin; first compound 0.01 µM) | relative viability (Tipifarnib + Phenformin; first compound 0.03162 µM) | relative viability (Tipifarnib + Phenformin; first compound 0.1 µM) | relative viability (Tipifarnib + Phenformin; first compound 0.3162 µM) | relative viability (Tipifarnib + Phenformin; first compound 1 µM) | relative viability (Tipifarnib + Olaparib; first compound 0.01 µM) | relative viability (Tipifarnib + Olaparib; first compound 0.03162 µM) | relative viability (Tipifarnib + Olaparib; first compound 0.1 µM) | relative viability (Tipifarnib + Olaparib; first compound 0.3162 µM) | relative viability (Tipifarnib + Olaparib; first compound 1 µM) |
| --- | --- | --- | --- | --- | --- | --- | --- | --- | --- | --- | --- | --- | --- | --- | --- | --- | --- | --- | --- | --- |
| LU99A | 0.394 | 0.431 | 0.312 | 0.25 | 0.209 | 0.663 | 0.583 | 0.461 | 0.448 | 0.275 | 0.918 | 0.623 | 0.515 | 0.404 | 0.359 | 0.293 | 0.23 | 0.226 | 0.245 | 0.202 |
| HCC-366 | 0.415 | 0.371 | 0.197 | 0.147 | 0.102 | 0.981 | 0.822 | 0.345 | 0.235 | 0.039 | 0.619 | 0.569 | 0.387 | 0.313 | 0.0592 | 0.302 | 0.327 | 0.164 | 0.199 | 0.106 |
| EKVX | 0.261 | 0.35 | 0.244 | 0.298 | 0.264 | 0.202 | 0.21 | 0.185 | 0.189 | 0.17 | 0.238 | 0.214 | 0.229 | 0.211 | 0.173 | 0.881 | 0.829 | 0.682 | 0.586 | 0.521 |
| NCI-H522 | 0.802 | 0.834 | 0.739 | 0.68 | 0.696 |  |  |  |  |  | 0.617 | 0.698 | 0.65 | 0.599 | 0.563 | 0.633 | 0.677 | 0.621 | 0.67 | 0.542 |
| NCI-H1755 | 0.793 | 0.732 | 0.718 | 0.723 | 0.714 | 1.03 | 0.988 | 0.981 | 0.906 | 0.507 | 0.703 | 0.594 | 0.564 | 0.577 | 0.418 | 0.869 | 0.86 | 0.875 | 0.891 | 0.898 |
| NCI-H647 | 0.475 | 0.419 | 0.418 | 0.254 | 0.225 | 1.17 | 0.792 | 0.693 | 0.668 | 0.176 | 0.499 | 0.353 | 0.469 | 0.262 | 0.114 | 0.566 | 0.472 | 0.39 | 0.142 | 0.142 |
| LC-2-ad | 0.938 | 0.661 | 0.669 | 0.561 | 0.532 | 0.843 | 0.592 | 0.367 | 0.436 | 0.178 | 0.566 | 0.532 | 0.498 | 0.568 | 0.372 | 0.69 | 0.667 | 0.666 | 0.533 | 0.515 |
| NCI-H1793 | 0.426 | 0.37 | 0.342 | 0.381 | 0.339 | 0.882 | 0.691 | 0.742 | 0.381 | 0.52 | 0.357 | 0.371 | 0.354 | 0.194 | 0.267 | 0.875 | 0.718 | 0.809 | 0.695 | 0.608 |

From the supplement of paper PMC10307832
